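These data come from cells grown in 96-well plates and exposed to compound for 48 hours at five concentrations. GI50 marks 50% less growth. TGI: concentration producing complete growth inhibition.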
Legend:
Experiment in all cases: inhibition of tumour cell growth, NCI panel, 48 h
[1] = test system: DU-145 prostate
[2] = test system: MCF7 breast
[3] = test system: NCI/ADR-RES ovarian
[4] = test system: PC-3 prostate
[5] = test system: DLD-1 colon
[6] = test system: MDA-MB-435
[7] = test system: MDA-N
[8] = test system: KM20L2 colon

Row | Compound | GI50 [1] | TGI [1] | GI50 [2] | TGI [2] | GI50 [3] | TGI [3] | GI50 [4] | TGI [4] | TGI [5] | TGI [6] | TGI [7] | TGI [8] | GI50 [6] | GI50 [8]
1 | CSC1=NCC2(S1)c1ccccc1N(C(=O)OC(C)(C)C)C2N1CCCCC1 (configuration not stated) | > 100 µM | > 100 µM | > 100 µM | > 100 µM | > 100 µM | > 100 µM | 34.7 µM | > 100 µM |  |  |  |  |  | 
2 | C[C@@H]1C[C@]2(C[C@@H](C)C3[C@@H](CC4(C)[C@@H]5CCC6C(C)(C)OC(=O)C=C[C@]67C[C@@]5(CC[C@]34C)OO7)O2)OC1=O (some centres not stated) |  |  |  |  |  |  |  |  | > 100 µM |  |  |  |  | 
3 | CC1(C)CC[C@]2(C(N)=O)CC[C@]3(C)C(=CC[C@@H]4[C@@]5(C)C/C(=C/c6ccncc6)C(=O)C(C)(C)[C@@H]5CC[C@]43C)[C@@H]2C1 | 2.91 µM | 7.85 µM | 2.52 µM | 10.5 µM | 2.42 µM | 6.99 µM | 1.37 µM | 3.51 µM |  |  |  |  |  | 
4 | COc1ccc(C(O)CC(O)(C(F)(F)F)C(F)(F)F)cc1 (configuration not stated) |  | > 100 µM |  | > 100 µM |  | 59.7 µM |  | 55.7 µM |  | > 100 µM | > 100 µM |  |  | 
5 | CCOP(=O)(Nc1ccc2oc(=O)c3ccccc3c2c1)OCC |  | > 100 µM |  | > 100 µM |  | > 100 µM |  | > 100 µM |  | > 100 µM | > 100 µM |  |  | 
6 | CSc1ccc(C(=O)C(=O)c2ccc(SC)s2)s1 |  | > 10 µM |  | > 10 µM |  | > 10 µM |  | > 10 µM |  | > 10 µM | > 10 µM |  |  | 
7 | C[C@]12CC[C@H](OC3CCCCO3)CC1=CC[C@@H]1C2CC[C@]2(C)/C(=N/O)CCC12 (some centres not stated) |  |  |  |  |  |  |  |  | > 100 µM |  |  | 30.5 µM |  | 
8 | CCOC(=O)C1COc2cc(-c3cc(=O)c4ccccc4o3)ccc2O1 (configuration not stated) |  |  |  |  |  |  |  |  | > 100 µM |  |  | > 100 µM |  | 
9 | COC(OC)c1cc2c(cc1C(=O)[C@@]13CCC[C@@H]1NC(=O)O3)OCO2 |  |  |  |  |  |  |  |  | > 100 µM |  |  |  |  | 
10 | COc1cccc(C2NC(=S)NC(C)=C2C(=O)Nc2ccc(Cl)c(Cl)c2)c1 (configuration not stated) | 0.00711 µM | 12 µM |  |  | > 50 µM | > 50 µM | 14.3 µM | > 50 µM |  | 16.8 µM |  |  | 8.22 µM | 
11 | O=c1[nH]c2ccccc2n1-c1n[nH]c2ccccc12 | 34 µM | > 100 µM | 20.1 µM | > 100 µM | 30.3 µM | > 100 µM | 18.1 µM | > 100 µM |  | 57.4 µM |  |  | 23.7 µM | 
12 | CC/C=C\C/C=C\C[C@H](O)C/C=C1/C(=O)C=C[C@@H]1C/C=C\CCCC(=O)OC | 3.6 µM | 14.6 µM | 0.329 µM | 5.2 µM | 1.78 µM | 7.41 µM | 2.54 µM | 6.68 µM |  | 6.26 µM |  |  | 1.21 µM | 
13 | CC1COCC(C)N1C1=C(Cl)C(=O)c2ccccc2C1=O (configuration not stated) | 10.7 µM | 22.9 µM | 1.67 µM | 3.76 µM | 3.36 µM | 14.1 µM | 3.92 µM | 17.8 µM |  | 2.73 µM |  |  | 1.35 µM | 
14 | COc1ccc(OC)c2c3c(ccc12)C(c1ccccc1)OC3=O (configuration not stated) |  |  |  |  |  |  |  |  | > 100 µM |  |  | > 100 µM |  | 
15 | CCOc1cc(-c2ccc[nH]2)[nH]c1/C=C1\N=C(C)C(C(=O)OC)=C1C | 0.0549 µM | 1.56 µM | 0.0369 µM | 0.467 µM | 0.0432 µM | 1.47 µM | 0.0357 µM | 2.13 µM |  | 1.05 µM |  |  | 0.0325 µM | 
16 | O=c1cc(-c2ccccn2)[nH]c2ccc(Cl)cc12 |  |  |  |  |  |  |  |  | > 100 µM |  |  | > 100 µM |  | 40 µM
17 | COc1cnc2cc(C(=O)O)c3ccccc3c2c1 |  | > 100 µM |  | > 100 µM |  | > 100 µM |  | > 100 µM |  | > 100 µM | > 100 µM |  |  | 
18 | COc1cc(/C=C(\C#N)C(N)=C(C#N)C#N)cc(O)c1O |  | > 100 µM |  | > 100 µM |  | > 100 µM |  | > 100 µM | > 100 µM | > 100 µM | > 100 µM | > 100 µM |  | 
19 | CC1=C(C(=O)Nc2ccc(Cl)c(Cl)c2)C(c2ccccc2O)NC(=O)N1 (configuration not stated) | > 50 µM | > 50 µM |  |  | > 50 µM | > 50 µM | 33.7 µM | > 50 µM |  | > 50 µM |  |  | 27.4 µM | 
20 | CCCCCCCCCCCCOP(N)(=O)OCCCCCCCCCCCC |  |  |  |  |  |  |  |  | > 100 µM |  |  |  |  | 
21 | C#CCN(Cc1ccc2nc(N)[nH]c(=O)c2c1)c1ccc(C(=O)NC(CCC(=O)O)C(=O)O)cc1 (configuration not stated) |  | > 100 µM |  | > 100 µM |  | > 100 µM |  | > 100 µM |  | > 100 µM | > 100 µM |  |  | 
22 | CC1(C)OC2C(COS(N)(=O)=O)SC(n3cnc4cncnc43)C2O1 (configuration not stated) | > 100 µM | > 100 µM | > 100 µM | > 100 µM | > 100 µM | > 100 µM | > 100 µM | > 100 µM |  | > 100 µM |  |  | > 100 µM | 
23 | N#CC1C=Cc2ccccc2N1C(=O)Oc1ccccc1 (configuration not stated) |  | 93.8 µM |  | > 100 µM |  | > 100 µM |  | > 100 µM |  | 58.7 µM | > 100 µM |  |  | 
24 | CC(C)C(=O)Oc1cc2c(=O)oc3c(OC(=O)C(C)C)c(OC(=O)C(C)C)cc4c(=O)oc(c1OC(=O)C(C)C)c2c34 |  | > 100 µM |  | > 100 µM |  | > 100 µM |  | > 100 µM |  | > 100 µM | > 100 µM |  |  | 
25 | Oc1[nH]c2cc(Cl)ccc2c1/C=c1/ccc2c(c1)N=C(c1cc(F)cc(F)c1)N=2 | 1.98 µM | 4.45 µM | 1.62 µM | 11.3 µM | 2.03 µM | 6.75 µM | 2.12 µM | 8.5 µM |  | 2.38 µM |  |  | 0.57 µM | 
26 | Cc1nc(-n2nc(-c3ccccc3)cc2-c2ccccc2)sc1C(/C=C/c1ccc([N+](=O)[O-])cc1)=N/NC(=O)c1ccncc1 |  |  |  |  |  |  |  |  | 33.2 µM |  |  | > 100 µM |  | 
27 | Cc1cc([N+](=O)[O-])c(C)c(Br)c1C |  | > 100 µM |  | > 100 µM |  | > 100 µM |  | > 100 µM |  | > 100 µM | > 100 µM |  |  | 
28 | Oc1ccc(Cl)cc1Cc1cc(Cl)ccc1O | 3.81 µM | 13.8 µM | 2.97 µM | 10.2 µM | 2.19 µM | 6.32 µM | 3.17 µM | 11.6 µM |  | 8.44 µM |  |  | 2.76 µM | 
